Common to all, as to assay type: cell-based
In one experiment the test system is Colo-205 cells. Description: Cell proliferation experiment, Colo-205 cells. As to conditions: Homo sapiens, COLO 205, Colo-205 cells, Cell Titer-Glo; read-out: Cell antiproliferation data Colo-205. On the procedure:
(§1) Reagents: RPMI-1640 medium, McCoy's 5A medium, IMDM medium, MEM medium, L-15 medium, fetal bovine serum, Penicillin-Streptomycin double antibody, trypsin, etc., 2-mercaptoethanol, NEAA, pyruvate, etc.
(§2) The test cells were cultured in conventional ways, and the cells should be passed for at least 2 generations before plating.
(§3) 25 μL of 1000 HT-29, N87, SKOV3, Colo-205 and MDA-MB-231 cells were inoculated in a 384-well plate with black wall and transparent bottom, 25 μL of different concentrations of compounds were added, and the cells were cultured overnight under condition of 37° C. and 5% CO2.
(§4) 25 μL of 1500 H82 and H69 cells were inoculated in a 384-well plate with black wall and transparent bottom, 25 μL of different concentrations of compounds were added, and the cells were cultured for 72 hours under condition of 37° C. and 5% CO2. The 384-well plate was equilibrated at room temperature, 25 μL of Cell Titer-Glo® reagent was added to each well, and the cells were lysed by shaking on a horizontal shaking shaker for 2 minutes, incubated at room temperature for 10 minutes to stabilize the luminescent signal, and then the chemiluminescent signal was detected using Envision.
(§5) All cells were subjected to IC50 test for corresponding samples.
(§6) The fluorescence intensity of each well was detected using the Alarm blue method, and EC50 was calculated.
(§7) IC50 was calculated according to the following formula:
(§8) [formula] • wherein, Min, Max and Slope represent the minimum, maximum and slope respectively.
On the technique in general: Cellular ATP, detected with luciferase, serves as a proxy for viable cell number.

A further experiment deals with MDA-MB-231 cells. Description: Cell proliferation experiment, MDA-MB-231 cells. Particulars: Homo sapiens, Cell Titer-Glo, read-out: Cell antiproliferation data MDA-MB-231. On the procedure:
as §1, §2, §3, §4, §5, §6, §7, §8

The test system of the next experiment is H69 cells. As to the kind of experiment: Cell proliferation experiment, H69 cells. Particulars: Homo sapiens, NCI-H69, 72 h, cultured for 72 hours, Cell Titer-Glo, read-out: Cell antiproliferation data H69. On the procedure: as §1, §2, §4
(§9) All cells were subjected to IC50 test for corresponding samples. […]
as §7, §8

The next experiment has as its system SKOV3 cells. As to the kind of experiment: Cell proliferation experiment, SKOV3 cells. Particulars: Homo sapiens, SK-OV-3, SKOV3 cells, Cell Titer-Glo; read-out: Cell antiproliferation data SKOV3. On the procedure: as §1, §2, §3, §4, §5, §6, §7, §8
For a further experiment, the system named is HT-29 cells. As to the kind of experiment: Cell proliferation experiment, HT-29 cells. Particulars: Homo sapiens, Cell Titer-Glo, read-out: Cell antiproliferation data HT-29. On the procedure:
as §1, §2, §3, §4, §5, §6, §7, §8

In another experiment the test system is N87 cells. Description: Cell proliferation experiment, N87 cells. As to conditions: Cell Titer-Glo, read-out: Cell antiproliferation data N87. On the procedure:
as §1, §2, §3, §4, §5, §6, §7, §8

Another experiment relates to H82 cells. As to the kind of experiment: Cell proliferation experiment, H82 cells. As to conditions: Homo sapiens, NCI-H82, cultured for 72 hours, Cell Titer-Glo, read-out: Cell antiproliferation data H82. On the procedure: as §1, §2, §4, §9, §7, §8

SMILES strings stand for the structures.

For `CC[C@H](CO)Nc1nc(NCc2ccc(-c3ccccc3)cc2)c2ncn(C(C)C)c2n1` [UB-007, (R)-2-((6-(([1,1′-biphenyl]-4-ylmethyl)amino)-9-isopropyl-9H-purin-2-yl)amino)butan-1-ol], the IC50 in the experiment on Colo-205 cells was > 0.3 µM; in the experiment with MDA-MB-231 cells it was > 0.3 µM; with H69 cells, > 0.3 µM; in the experiment on SKOV3 cells it was > 0.3 µM; with HT-29 cells, 0.1 to 0.3 µM; with N87 cells it was 0.1 to 0.3 µM. The IC50 in the experiment with H82 cells lay in the range of 0.1 to 0.3 µM.
On to `CC(C)n1cnc2c(NCc3ccc(-c4ccccc4)cc3)nc(N3CCNCC3)nc21` [UB-010, N-([1,1′-biphenyl]-4-ylmethyl)-9-isopropyl-2-(piperazin-1-yl)-9H-purin-6-amine], for which the IC50 in the experiment on Colo-205 cells is ≤ 0.1 µM; with MDA-MB-231 cells, ≤ 0.1 µM; with H69 cells it was 0.1 to 0.3 µM; in the experiment with SKOV3 cells it was ≤ 0.1 µM; in the experiment with HT-29 cells it was ≤ 0.1 µM; with N87 cells, ≤ 0.1 µM. In addition, in the experiment on H82 cells, the IC50 was ≤ 0.1 µM.
Consider `CC(C)n1cnc2c(NCc3ccc(-c4ccccc4)cc3)nc(N[C@H]3CCCNC3)nc21` [UB-015, (S)-N6-([1,1′-biphenyl]-4-ylmethyl)-9-isopropyl-N2-(Piperidin-3-yl)-9H-purin-2,6-diamine], for which the IC50 was ≤ 0.1 µM with Colo-205 cells; ≤ 0.1 µM with MDA-MB-231 cells; 0.1 to 0.3 µM in the experiment on H69 cells; 0.1 to 0.3 µM in the experiment with SKOV3 cells; ≤ 0.1 µM in the experiment with HT-29 cells; ≤ 0.1 µM in the experiment on N87 cells. For the same compound, the IC50 with H82 cells was ≤ 0.1 µM.
As to `CC(C)n1cnc2c(NCc3ccc(-c4ccccc4)cc3)nc(N[C@@H]3CCCNC3)nc21` [UB-014, (R)-N6-([1,1′-biphenyl]-4-ylmethyl)-9-isopropyl-N2-(Piperidin-3-yl)-9H-purin-2,6-diamine], the IC50 in the experiment on Colo-205 cells is ≤ 0.1 µM; with MDA-MB-231 cells it was ≤ 0.1 µM; in the experiment with H69 cells, 0.1 to 0.3 µM; in the experiment with SKOV3 cells, 0.1 to 0.3 µM; in the experiment with HT-29 cells it was ≤ 0.1 µM; in the experiment on N87 cells, ≤ 0.1 µM. Also, in the experiment with H82 cells, the IC50 is ≤ 0.1 µM.

For the origin of these results see patent US20260152501A1, “CYCLIN MODULATOR” (EUBULUS BIOTHERAPEUTICS (HONG KONG) LIMITED, priority 2022, published 2026).
